Measurements as given in ChEMBL document CHEMBL1649134, “Occurrence of efflux mechanism and cephalosporinase variant in a population of Enterobacter aerogenes and Klebsiella pneumoniae isolates producing extended-spectrum beta-lactamases” (2009).

Assays:
Type in all cases: functional
Klebsiella pneumoniae [1] = experiment: Antimicrobial activity against multidrug resistant Klebsiella pneumoniae isolate 11 by broth dilution method
Klebsiella pneumoniae [2] = experiment: Antimicrobial activity against multidrug resistant Klebsiella pneumoniae isolate 10 by broth dilution method
Klebsiella aerogenes [3] = experiment: Antimicrobial activity against multidrug resistant Enterobacter aerogenes isolate 10 by broth dilution method
Klebsiella aerogenes [4] = experiment: Antimicrobial activity against multidrug resistant Enterobacter aerogenes isolate 9 by broth dilution method in presence of 26.3 mg/L efflux pump inhibitor phenylalanine-arginine-beta-naphthylamide
Klebsiella pneumoniae [5] = experiment: Antimicrobial activity against multidrug resistant Klebsiella pneumoniae isolate 16 by broth dilution method in presence of 26.3 mg/L efflux pump inhibitor phenylalanine-arginine-beta-naphthylamide
Klebsiella aerogenes [6] = experiment: Antimicrobial activity against multidrug resistant Enterobacter aerogenes isolate 11 by broth dilution method in presence of 26.3 mg/L efflux pump inhibitor phenylalanine-arginine-beta-naphthylamide
Klebsiella aerogenes [7] = experiment: Antimicrobial activity against multidrug resistant Enterobacter aerogenes isolate 18 by broth dilution method
Klebsiella pneumoniae [8] = experiment: Antimicrobial activity against multidrug resistant Klebsiella pneumoniae ATCC 11296 by broth dilution method in presence of 26.3 mg/L efflux pump inhibitor phenylalanine-arginine-beta-naphthylamide
Klebsiella aerogenes [9] = experiment: Antimicrobial activity against multidrug resistant Enterobacter aerogenes isolate 6 by broth dilution method in presence of 26.3 mg/L efflux pump inhibitor phenylalanine-arginine-beta-naphthylamide
Klebsiella pneumoniae [10] = experiment: Antimicrobial activity against multidrug resistant Klebsiella pneumoniae isolate 9 by broth dilution method
Klebsiella pneumoniae [11] = experiment: Antimicrobial activity against multidrug resistant Klebsiella pneumoniae isolate 1 by broth dilution method
Klebsiella pneumoniae [12] = experiment: Antimicrobial activity against multidrug resistant Klebsiella pneumoniae ATCC 11296 by broth dilution method
Klebsiella aerogenes [13] = experiment: Antimicrobial activity against multidrug resistant Enterobacter aerogenes isolate 16 by broth dilution method
Klebsiella pneumoniae [14] = experiment: Antimicrobial activity against multidrug resistant Klebsiella pneumoniae isolate 1 by broth dilution method in presence of 26.3 mg/L efflux pump inhibitor phenylalanine-arginine-beta-naphthylamide
Klebsiella aerogenes [15] = experiment: Antimicrobial activity against multidrug resistant Enterobacter aerogenes isolate 21 by broth dilution method in presence of 26.3 mg/L efflux pump inhibitor phenylalanine-arginine-beta-naphthylamide
Klebsiella pneumoniae [16] = experiment: Antimicrobial activity against multidrug resistant Klebsiella pneumoniae isolate 5 by broth dilution method
Klebsiella aerogenes [17] = experiment: Antimicrobial activity against multidrug resistant Enterobacter aerogenes isolate 7 by broth dilution method
Klebsiella aerogenes [18] = experiment: Antimicrobial activity against multidrug resistant Enterobacter aerogenes isolate 4 by broth dilution method
Klebsiella aerogenes [19] = experiment: Antimicrobial activity against multidrug resistant Enterobacter aerogenes isolate 18 by broth dilution method in presence of 26.3 mg/L efflux pump inhibitor phenylalanine-arginine-beta-naphthylamide
Klebsiella pneumoniae [20] = experiment: Antimicrobial activity against multidrug resistant Klebsiella pneumoniae isolate 10 by broth dilution method in presence of 26.3 mg/L efflux pump inhibitor phenylalanine-arginine-beta-naphthylamide
Klebsiella aerogenes [21] = experiment: Antimicrobial activity against multidrug resistant Enterobacter aerogenes isolate 25 by broth dilution method in presence of 26.3 mg/L efflux pump inhibitor phenylalanine-arginine-beta-naphthylamide
Klebsiella pneumoniae [22] = experiment: Antimicrobial activity against multidrug resistant Klebsiella pneumoniae isolate 8 by broth dilution method
Klebsiella aerogenes [23] = experiment: Antimicrobial activity against multidrug resistant Enterobacter aerogenes isolate 1 by broth dilution method
Klebsiella aerogenes [24] = experiment: Antimicrobial activity against multidrug resistant Enterobacter aerogenes isolate 24 by broth dilution method in presence of 26.3 mg/L efflux pump inhibitor phenylalanine-arginine-beta-naphthylamide
Klebsiella aerogenes [25] = experiment: Antimicrobial activity against multidrug resistant Enterobacter aerogenes isolate 2 by broth dilution method in presence of 26.3 mg/L efflux pump inhibitor phenylalanine-arginine-beta-naphthylamide
Klebsiella aerogenes [26] = experiment: Antimicrobial activity against multidrug resistant Enterobacter aerogenes isolate 23 by broth dilution method
Klebsiella pneumoniae [27] = experiment: Antimicrobial activity against multidrug resistant Klebsiella pneumoniae isolate 15 by broth dilution method in presence of 26.3 mg/L efflux pump inhibitor phenylalanine-arginine-beta-naphthylamide
Klebsiella aerogenes [28] = experiment: Antimicrobial activity against multidrug resistant Enterobacter aerogenes isolate 1 by broth dilution method in presence of 26.3 mg/L efflux pump inhibitor phenylalanine-arginine-beta-naphthylamide
Klebsiella aerogenes [29] = experiment: Antimicrobial activity against multidrug resistant Enterobacter aerogenes isolate 17 by broth dilution method
Klebsiella pneumoniae [30] = experiment: Antimicrobial activity against multidrug resistant Klebsiella pneumoniae isolate 9 by broth dilution method in presence of 26.3 mg/L efflux pump inhibitor phenylalanine-arginine-beta-naphthylamide
Klebsiella pneumoniae [31] = experiment: Antimicrobial activity against multidrug resistant Klebsiella pneumoniae isolate 7 by broth dilution method
Klebsiella aerogenes [32] = experiment: Antimicrobial activity against multidrug resistant Enterobacter aerogenes isolate 9 by broth dilution method
Klebsiella aerogenes [33] = experiment: Antimicrobial activity against multidrug resistant Enterobacter aerogenes isolate 22 by broth dilution method
Klebsiella pneumoniae [34] = experiment: Antimicrobial activity against multidrug resistant Klebsiella pneumoniae isolate 6 by broth dilution method
Klebsiella aerogenes [35] = experiment: Antimicrobial activity against multidrug resistant Enterobacter aerogenes isolate 26 by broth dilution method
Klebsiella aerogenes [36] = experiment: Antimicrobial activity against multidrug resistant Enterobacter aerogenes isolate 15 by broth dilution method in presence of 26.3 mg/L efflux pump inhibitor phenylalanine-arginine-beta-naphthylamide
Klebsiella aerogenes [37] = experiment: Antimicrobial activity against multidrug resistant Enterobacter aerogenes isolate 13 by broth dilution method in presence of 26.3 mg/L efflux pump inhibitor phenylalanine-arginine-beta-naphthylamide
Klebsiella aerogenes [38] = experiment: Antimicrobial activity against multidrug resistant Enterobacter aerogenes isolate 26 by broth dilution method in presence of 26.3 mg/L efflux pump inhibitor phenylalanine-arginine-beta-naphthylamide
Klebsiella aerogenes [39] = experiment: Antimicrobial activity against multidrug resistant Enterobacter aerogenes isolate 20 by broth dilution method in presence of 26.3 mg/L efflux pump inhibitor phenylalanine-arginine-beta-naphthylamide
Klebsiella aerogenes [40] = experiment: Antimicrobial activity against multidrug resistant Enterobacter aerogenes isolate 7 by broth dilution method in presence of 26.3 mg/L efflux pump inhibitor phenylalanine-arginine-beta-naphthylamide
Klebsiella pneumoniae [41] = experiment: Antimicrobial activity against multidrug resistant Klebsiella pneumoniae isolate 16 by broth dilution method
Klebsiella pneumoniae [42] = experiment: Antimicrobial activity against multidrug resistant Klebsiella pneumoniae isolate 6 by broth dilution method in presence of 26.3 mg/L efflux pump inhibitor phenylalanine-arginine-beta-naphthylamide
Klebsiella aerogenes [43] = experiment: Antimicrobial activity against multidrug resistant Enterobacter aerogenes isolate 2 by broth dilution method
Klebsiella aerogenes [44] = experiment: Antimicrobial activity against multidrug resistant Enterobacter aerogenes isolate 11 by broth dilution method
Klebsiella pneumoniae [45] = experiment: Antimicrobial activity against multidrug resistant Klebsiella pneumoniae isolate 5 by broth dilution method in presence of 26.3 mg/L efflux pump inhibitor phenylalanine-arginine-beta-naphthylamide
Klebsiella aerogenes [46] = experiment: Antimicrobial activity against multidrug resistant Enterobacter aerogenes isolate 27 by broth dilution method in presence of 26.3 mg/L efflux pump inhibitor phenylalanine-arginine-beta-naphthylamide
Klebsiella aerogenes [47] = experiment: Antimicrobial activity against multidrug resistant Enterobacter aerogenes isolate 4 by broth dilution method in presence of 26.3 mg/L efflux pump inhibitor phenylalanine-arginine-beta-naphthylamide
Klebsiella aerogenes [48] = experiment: Antimicrobial activity against multidrug resistant Enterobacter aerogenes isolate 21 by broth dilution method
Klebsiella aerogenes [49] = experiment: Antimicrobial activity against multidrug resistant Enterobacter aerogenes isolate 25 by broth dilution method
Klebsiella pneumoniae [50] = experiment: Antimicrobial activity against multidrug resistant Klebsiella pneumoniae isolate 13 by broth dilution method in presence of 26.3 mg/L efflux pump inhibitor phenylalanine-arginine-beta-naphthylamide

Measured: MIC

C[C@@H]1CN(c2c(F)c(N)c3c(=O)c(C(=O)O)cn(C4CC4)c3c2F)C[C@H](C)N1 [SPARFLOXACIN]
32 µg/mL: Klebsiella aerogenes [15] | Klebsiella aerogenes [35]
128 µg/mL: Klebsiella aerogenes [7] | Klebsiella aerogenes [17] | Klebsiella aerogenes [18] | Klebsiella aerogenes [26] | Klebsiella aerogenes [32] | Klebsiella aerogenes [43] | Klebsiella aerogenes [44] | Klebsiella aerogenes [49]
64 µg/mL: Klebsiella aerogenes [13]
0.5 µg/mL: Klebsiella pneumoniae [50]
512 µg/mL: Klebsiella aerogenes [48]
≤ 0.06 µg/mL: Klebsiella pneumoniae [5] | Klebsiella pneumoniae [8] | Klebsiella aerogenes [9] | Klebsiella pneumoniae [10] | Klebsiella pneumoniae [12] | Klebsiella pneumoniae [30] | Klebsiella pneumoniae [34] | Klebsiella pneumoniae [42] | Klebsiella pneumoniae [45]
16 µg/mL: Klebsiella aerogenes [19] | Klebsiella aerogenes [24] | Klebsiella aerogenes [39]
4 µg/mL: Klebsiella aerogenes [6] | Klebsiella aerogenes [38] | Klebsiella aerogenes [40]
8 µg/mL: Klebsiella pneumoniae [1] | Klebsiella pneumoniae [2] | Klebsiella aerogenes [4] | Klebsiella aerogenes [21] | Klebsiella aerogenes [25] | Klebsiella pneumoniae [27] | Klebsiella aerogenes [28] | Klebsiella aerogenes [36] | Klebsiella aerogenes [37] | Klebsiella aerogenes [46] | Klebsiella aerogenes [47]
256 µg/mL: Klebsiella aerogenes [3] | Klebsiella aerogenes [23] | Klebsiella aerogenes [29] | Klebsiella aerogenes [33]
2 µg/mL: Klebsiella pneumoniae [20]
0.125 µg/mL: Klebsiella pneumoniae [16] | Klebsiella pneumoniae [22] | Klebsiella pneumoniae [41]
0.25 µg/mL: Klebsiella pneumoniae [11] | Klebsiella pneumoniae [14] | Klebsiella pneumoniae [31]

CCn1cc(C(=O)O)c(=O)c2cc(F)c(N3CCNCC3)cc21 [NORFLOXACIN]
1 µg/mL: Klebsiella pneumoniae [10] | Klebsiella pneumoniae [34] | Klebsiella pneumoniae [41]
0.25 µg/mL: Klebsiella pneumoniae [31] | Klebsiella pneumoniae [42]
> 512 µg/mL: Klebsiella aerogenes [29]
≤ 0.06 µg/mL: Klebsiella pneumoniae [30]
0.125 µg/mL: Klebsiella pneumoniae [8]
64 µg/mL: Klebsiella pneumoniae [1]
512 µg/mL: Klebsiella aerogenes [13] | Klebsiella aerogenes [18] | Klebsiella aerogenes [26] | Klebsiella aerogenes [37] | Klebsiella aerogenes [44] | Klebsiella aerogenes [47] | Klebsiella aerogenes [48]
32 µg/mL: Klebsiella pneumoniae [50]
0.5 µg/mL: Klebsiella pneumoniae [5] | Klebsiella pneumoniae [12] | Klebsiella pneumoniae [45]
256 µg/mL: Klebsiella aerogenes [3] | Klebsiella aerogenes [6] | Klebsiella aerogenes [17] | Klebsiella aerogenes [23] | Klebsiella aerogenes [25] | Klebsiella pneumoniae [27] | Klebsiella aerogenes [28] | Klebsiella aerogenes [33] | Klebsiella aerogenes [35] | Klebsiella aerogenes [40] | Klebsiella aerogenes [43] | Klebsiella aerogenes [49]
2 µg/mL: Klebsiella aerogenes [9] | Klebsiella pneumoniae [11] | Klebsiella pneumoniae [14] | Klebsiella pneumoniae [16] | Klebsiella pneumoniae [22]
128 µg/mL: Klebsiella pneumoniae [2] | Klebsiella aerogenes [4] | Klebsiella aerogenes [7] | Klebsiella aerogenes [15] | Klebsiella aerogenes [19] | Klebsiella pneumoniae [20] | Klebsiella aerogenes [21] | Klebsiella aerogenes [24] | Klebsiella aerogenes [32] | Klebsiella aerogenes [36] | Klebsiella aerogenes [38] | Klebsiella aerogenes [39] | Klebsiella aerogenes [46]

CN(C)[C@@H]1C(O)=C(C(N)=O)C(=O)[C@@]2(O)C(O)=C3C(=O)c4c(O)cccc4[C@@](C)(O)[C@H]3C[C@@H]12 [TETRACYCLINE]
256 µg/mL: Klebsiella pneumoniae [20] | Klebsiella pneumoniae [42]
4 µg/mL: Klebsiella pneumoniae [1] | Klebsiella aerogenes [4] | Klebsiella aerogenes [7] | Klebsiella aerogenes [19] | Klebsiella aerogenes [21] | Klebsiella aerogenes [25] | Klebsiella aerogenes [39] | Klebsiella pneumoniae [41]
8 µg/mL: Klebsiella aerogenes [6] | Klebsiella aerogenes [9] | Klebsiella pneumoniae [10] | Klebsiella pneumoniae [11] | Klebsiella aerogenes [15] | Klebsiella aerogenes [24] | Klebsiella aerogenes [28] | Klebsiella aerogenes [36] | Klebsiella aerogenes [37] | Klebsiella aerogenes [46] | Klebsiella aerogenes [47]
128 µg/mL: Klebsiella aerogenes [3] | Klebsiella pneumoniae [5] | Klebsiella pneumoniae [14] | Klebsiella aerogenes [17] | Klebsiella aerogenes [18] | Klebsiella aerogenes [23] | Klebsiella pneumoniae [27] | Klebsiella pneumoniae [30] | Klebsiella aerogenes [33] | Klebsiella pneumoniae [45] | Klebsiella aerogenes [48] | Klebsiella pneumoniae [50]
32 µg/mL: Klebsiella aerogenes [35]
1 µg/mL: Klebsiella pneumoniae [8]
2 µg/mL: Klebsiella pneumoniae [2] | Klebsiella pneumoniae [12] | Klebsiella pneumoniae [16] | Klebsiella pneumoniae [22] | Klebsiella pneumoniae [31] | Klebsiella pneumoniae [34] | Klebsiella aerogenes [38]
16 µg/mL: Klebsiella aerogenes [40]
64 µg/mL: Klebsiella aerogenes [13] | Klebsiella aerogenes [26] | Klebsiella aerogenes [29] | Klebsiella aerogenes [32] | Klebsiella aerogenes [43] | Klebsiella aerogenes [44] | Klebsiella aerogenes [49]

O=C(N[C@H](CO)[C@H](O)c1ccc([N+](=O)[O-])cc1)C(Cl)Cl [CHLORAMPHENICOL]
1020 µg/mL: Klebsiella aerogenes [3] | Klebsiella aerogenes [17] | Klebsiella aerogenes [18] | Klebsiella aerogenes [23] | Klebsiella aerogenes [29] | Klebsiella aerogenes [33] | Klebsiella aerogenes [48]
512 µg/mL: Klebsiella aerogenes [13] | Klebsiella aerogenes [26] | Klebsiella aerogenes [43] | Klebsiella aerogenes [44] | Klebsiella aerogenes [49]
4 µg/mL: Klebsiella pneumoniae [2] | Klebsiella pneumoniae [5] | Klebsiella aerogenes [9] | Klebsiella pneumoniae [12] | Klebsiella aerogenes [19] | Klebsiella pneumoniae [50]
256 µg/mL: Klebsiella aerogenes [32] | Klebsiella aerogenes [35]
64 µg/mL: Klebsiella aerogenes [4] | Klebsiella aerogenes [6] | Klebsiella pneumoniae [10] | Klebsiella aerogenes [21] | Klebsiella aerogenes [24] | Klebsiella aerogenes [25] | Klebsiella aerogenes [36] | Klebsiella aerogenes [37] | Klebsiella aerogenes [39]
8 µg/mL: Klebsiella pneumoniae [1] | Klebsiella pneumoniae [11] | Klebsiella pneumoniae [14] | Klebsiella pneumoniae [30]
2 µg/mL: Klebsiella pneumoniae [8] | Klebsiella pneumoniae [20] | Klebsiella pneumoniae [27] | Klebsiella pneumoniae [42] | Klebsiella pneumoniae [45]
32 µg/mL: Klebsiella aerogenes [7] | Klebsiella pneumoniae [16] | Klebsiella pneumoniae [22] | Klebsiella pneumoniae [31] | Klebsiella pneumoniae [34] | Klebsiella aerogenes [38]
128 µg/mL: Klebsiella aerogenes [15] | Klebsiella aerogenes [28] | Klebsiella aerogenes [40] | Klebsiella aerogenes [46] | Klebsiella aerogenes [47]
